Reference: PubChem BioAssay AID1159562 (GlaxoSmithKline (GSK), 2015)
Activity calls are given as the source filed them. No rule for the calls is given here.

The molecules below were run on Trypanosoma brucei growth inhibition, luminescence (assay: antitrypanosomal activity against T. brucei – luminescence (AID 1159562);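 also: parasites grew with compound for 24 h before the luminescence read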).

Row | SMILES | IC50
1 | O=C(Nc1cccc(Cl)c1)N1CCCCC1c1cccnc1 (centres undefined) | > 40 µM (inactive)
2 | COc1ccc(-c2cnc(C)o2)cc1S(=O)(=O)Nc1ccc(C)cc1C | 32 µM
3 | O=C(c1cccc(Cl)c1Cl)N1CCn2c1nc(-c1ccncc1)cc2=O | 32 µM
4 | CC(C)(C)Nc1nc(Nc2ccc3c(c2)CS(=O)(=O)C3)nc2[nH]ccc12 | 5 µM
5 | COc1ccc(OC)c(NC(=O)c2ccc([N+](=O)[O-])o2)c1 | 0.063 µM
6 | CC(C)(C)C(Cn1ccnc1)NC(=O)c1ccc2nc(C3CC3)oc2c1 (centres undefined) | > 40 µM (inactive)
7 | COc1ccnc2[nH]cc(-c3cc(C(=O)N[C@H](CO)c4ccccc4)co3)c12 | 0.013 µM
8 | COc1ccc2nc(N(Cc3cccnc3)C(=O)C3CCC3)sc2c1 | 40 µM
9 | CNS(=O)(=O)c1ccccc1Nc1nc(Nc2cc(C)nn2C)ncc1Cl | 0.1 µM
10 | O=c1[nH]c(C=Cc2cccc(OCCOc3ccccc3)c2)nc(O)c1[N+](=O)[O-] | 10 µM
11 | CCC(=O)N1N=C(c2ccc3c(c2)CCCC3)Sc2c1ncn2C(=O)CC | 20 µM
12 | Cc1c(C#N)c([N+](=O)[O-])nn1Cc1cccc(Cl)c1Cl | 25 µM
13 | Cc1nn(-c2nc3ccccc3s2)c2c1C(c1ccc(OCC(N)=O)cc1)SCC(=O)N2 (centres undefined) | 0.032 µM
14 | O=C(NCCc1ccn(-c2ccccc2)n1)C1CCCCC1 | 0.32 µM
15 | CCc1nn(-c2ncc(F)c(NC(C)C)n2)c(N)c1C1CCCCC1 | 16 µM
16 | COc1ccc(C(C)(C)C)cc1S(=O)(=O)n1ccnc1 | > 40 µM (inactive)
17 | COc1ccc(CNc2nsc3ccccc23)cc1OC | 6.3 µM
18 | Cc1ccc2c(c1)SC(C(=O)Nc1n[nH]c(-c3ccccn3)n1)C2 (centres undefined) | > 40 µM (inactive)
19 | CCOc1ccc(NC(=O)c2ccc(NC(=O)NC3CCCCC3)cc2)cc1 | 0.5 µM
20 | Cn1nc(-c2ccc(NC(=O)Cc3ccccc3Cl)cc2)c2c(N)ncnc21 | 0.25 µM
21 | O=C(CSc1nnc2ccc(-c3ccc(F)cc3)nn12)N1CCCCC1 | 0.5 µM
22 | O=C(CC1(O)C(=O)N(Cc2cccs2)c2ccc(Br)cc21)c1cccnc1 (centres undefined) | 0.79 µM

Row | SMILES | IC50
23 | Cc1cc(NC(=O)c2ccc([N+](=O)[O-])s2)ccc1Br | 5 µM
24 | Cc1ccccc1NS(=O)(=O)c1ccc2[nH]cc(C(=O)NC3CCCCC3)c(=O)c2c1 | 0.32 µM
25 | O=S1N=C(NCCCN(Cc2ccc(F)cc2)c2ccccn2)C(NCc2ccncc2)=N1 (centres undefined) | 0.5 µM
26 | O=C1CN(Cc2ccco2)C2CS(=O)(=O)CC2N1c1ccc(Cl)cc1 (centres undefined) | 0.25 µM
27 | CC(C)(C)C(=O)Nc1cc(C2CC2)nn1-c1nc2c(c(=O)[nH]1)CCCC2 | 0.2 µM
28 | CCn1c(-c2nonc2N)nc2c([C@@H](C)O)ncc(O[C@H](CN)c3ccccc3)c21 | 0.79 µM
29 | O=C(Nc1nc2cc(Cl)ccc2o1)c1cccc(Cl)c1 | 0.79 µM
30 | COc1cccc(-c2cc(C(F)(F)F)nc(-n3ccc([N+](=O)[O-])n3)n2)c1 | > 40 µM (inactive)
31 | CN(CC1CCCO1)S(=O)(=O)c1ccc(C(=O)Nc2nc(-c3ccccn3)cs2)cc1 (centres undefined) | 0.63 µM
32 | Clc1cc(Br)ccc1OCCCCn1ccnc1 | 20 µM
33 | COc1cc(Cl)c(C)cc1NC(=O)c1ccc([N+](=O)[O-])s1 | 10 µM
34 | C=CCN(Cc1cccs1)C(=O)CSc1nnc(-c2ccc3c(c2)OCO3)o1 | 40 µM
35 | Cn1nccc1NC(=O)Cn1ccc(-c2ccncc2)n1 | 0.63 µM
36 | CCc1cc(C(=O)Nc2nccn2-c2ccccc2)cs1 | 4 µM
37 | CNc1cc(Cn2c(C(=O)c3cc(C)cc(Cl)c3)c(C(C)C)c(=O)[nH]c2=O)ccn1 | 25 µM
38 | O=C(CC1(O)C(=O)N(Cc2ccccc2)c2ccc(Br)cc21)c1cccnc1 (centres undefined) | 0.79 µM
39 | Cc1nn(-c2nc(N)nc(-c3ccccn3)n2)c(C)c1Cc1ccccc1 | 6.3 µM
40 | CCCc1cc(C(=O)Nc2ncc(-c3cccc(Br)c3)n2C)n[nH]1 | 1.3 µM
41 | CC(C)(C)C(O)(CCc1ccc(Cl)cc1)Cn1cncn1 (centres undefined) | > 40 µM (inactive)
42 | O=C(NCCNc1noc(-c2ccc([N+](=O)[O-])cc2)n1)c1ccc(Cl)cc1 | > 40 µM (inactive)
43 | Cc1ccc2sc(NC(=O)Cn3cnc([N+](=O)[O-])n3)nc2c1 | > 40 µM (inactive)
44 | OC1CCC(Nc2nccc(-c3sc(C4CCOCC4)nc3-c3ccc(F)c(F)c3)n2)CC1 (centres undefined) | 4 µM

Row | SMILES | IC50
45 | CCCc1cc(N)nc(-c2cc(CCC)cc(N)n2)c1 | 7.9 µM
46 | Cc1ccc(Nc2nc(N)nc(CNC(c3nc4ccccc4[nH]3)C(C)C)n2)cc1 (centres undefined) | 5 µM
47 | O=C(NCCc1cccnc1)c1csc(-c2ccccc2)n1 | > 40 µM (inactive)
48 | Cc1c(Nc2cc(C3CC3)[nH]n2)ccc(C#N)c1Cl | 0.63 µM
49 | O=C(CN(c1cccc(C(F)(F)F)c1)S(=O)(=O)c1ccc(Cl)cc1)NCc1ccc(F)c(F)c1 | 25 µM
50 | O=[N+]([O-])c1ccc(-c2nnn(-c3cccnc3)n2)o1 | 0.5 µM
51 | Cc1ccnc(NS(=O)(=O)c2ccc(NC(=O)c3ccc([N+](=O)[O-])s3)cc2)n1 | 0.4 µM
52 | COc1ccccc1-n1c(SCC(=O)Nc2ccc3c(c2)OCO3)nc2c(c1=O)SCC2 | > 40 µM (inactive)
53 | COc1cc(OC)cc(C(NS(=O)(=O)c2ccc(Cl)c(C(F)(F)F)c2)c2nccn2C)c1 (centres undefined) | 7.9 µM
54 | O=C(NCC(c1cccs1)N1CCOCC1)c1ccc([N+](=O)[O-])o1 (centres undefined) | 0.32 µM
55 | CNC(=O)C1Cc2ccccc2N1C(=O)COc1cccc(OC)c1 (centres undefined) | 1 µM
56 | Clc1ccc(Sc2cnccc2N2CCOCC2)cc1 | > 40 µM (inactive)
57 | N#Cc1cnc(Nc2cccc(CCN3CCOCC3)c2)nc1Nc1ccccc1C(N)=O | 0.25 µM
58 | O=C(NCC1CCCCN1C(=O)c1cccc2ccccc12)c1ccccc1 (centres undefined) | 0.4 µM
59 | COc1cccc(Nc2cc(C)nc(-c3ccccn3)n2)c1 | > 40 µM (inactive)
60 | COc1ncc(-c2ccc3nccc(-c4ccncc4)c3c2)cc1NS(=O)(=O)C1CC1 | 0.4 µM
61 | CN(C)Cc1cccc(Nc2nccc(-c3ccc(NCCN)c(C#N)c3)n2)c1 | 0.2 µM
62 | COc1cc(Nc2nccc(Nc3onc(C)c3C)n2)cc(S(=O)(=O)C2CCOCC2)c1 | 0.5 µM
63 | CC(C)Oc1cccc(N2CCC(C(=O)N3CCCN(C(C)C)CC3)CC2)c1 | > 40 µM (inactive)
64 | O=C(NCC1CCCCC1)c1cc(=O)c2ccccc2o1 | 1.3 µM
65 | CCOc1ccc(CN(C)Cc2nc(N)nc(Nc3ccc(C)cc3)n2)cc1 | 2 µM
66 | COc1ccc2c(Cl)c(C(=O)N3CCC3)sc2c1Cl | > 40 µM (inactive)

Row | SMILES | IC50
67 | CS(=O)(=O)NC1CCC(Oc2cc3cnccc3cc2-c2ccsc2)CC1 (centres undefined) | > 40 µM (inactive)
68 | NC(=O)c1cc(NC(=O)c2ccccc2COc2ccccc2)ccc1Cl | > 40 µM (inactive)
69 | C=CCn1nc([N+](=O)[O-])nc1Oc1ccc(Cl)cc1Cl | > 40 µM (inactive)
70 | Oc1c(-c2n[nH]c(CCc3ccccc3)n2)ncc2cccnc12 | 1.6 µM
71 | CC(c1ccccn1)N(C)Cc1nc2ccccc2n1C(C)C (centres undefined) | 10 µM
72 | CN(Cc1cc2ccccc2s1)c1ncc2c(N)nc(N)nc2n1 | 25 µM
73 | COc1ccc([N+](=O)[O-])cc1NC(=O)Nc1cccc(Cl)c1 | 20 µM
74 | COc1cc(C(C)C)c(S(C)(=O)=O)cc1C(=O)N1CCN(c2ccccc2Cl)CC1 | 32 µM
75 | CCN(CC)c1nc(Nc2ccncc2)nc2ccccc12 | 5 µM
76 | Cc1cc(=O)n2nc(Oc3ccc(C#N)cc3Cl)sc2n1 | 0.32 µM
77 | Cc1c(C(=O)NCCCCn2ccnc2)oc2c(C)cccc12 | > 40 µM (inactive)
78 | Cc1nc(-c2ccc3c(c2)OCO3)sc1C(=O)NCc1ccc2c(c1)OCO2 | > 40 µM (inactive)
79 | CC(C(=O)Nc1ccc(Br)cc1)N1CCN(c2ccc([N+](=O)[O-])cc2)CC1 (centres undefined) | > 40 µM (inactive)
80 | NCc1csc(Nc2cc(Oc3ccccc3)ncn2)n1 | 0.79 µM
81 | COc1ccc(C)cc1-c1csc(NC(=O)C(C)n2ccnc2)n1 (centres undefined) | > 40 µM (inactive)
82 | CC(C)(C)CC(=O)NCc1noc(COc2ccccc2)n1 | 0.79 µM
83 | CC(C)S(=O)(=O)c1ccc(-c2cnc(N)c3cc(-c4ccnc(N)n4)ccc23)cc1 | 0.25 µM
84 | Cc1cc2cc(CNc3ccc4c(c3)OCO4)c(=O)n(CCO)c2cc1C | > 40 µM (inactive)
85 | O=C(Cn1cnc2cc([N+](=O)[O-])ccc2c1=O)NCCc1ccc(Cl)cc1Cl | > 40 µM (inactive)
86 | COc1ccc(-c2cc(C)no2)cc1S(=O)(=O)Nc1ccc(C)c(C)c1 | 20 µM
87 | Nc1nc(-c2ccccn2)nc(N)c1Cc1c(F)cccc1Cl | 2 µM
88 | CNc1cncc(C2CCCN2C(=O)Cc2ccc3ccccc3c2)n1 (centres undefined) | > 40 µM (inactive)

Row | SMILES | IC50
89 | O=C(NC(c1ccc(Cl)cc1)c1cnccn1)C1CCN(C(=O)Nc2cccc(C(F)(F)F)c2)CC1 (centres undefined) | 6.3 µM
90 | Cc1ccc(C)c(OC2CCN(C(=O)C(C)n3ccnc3)CC2)c1 (centres undefined) | > 40 µM (inactive)
91 | Fc1ccc(Nc2nc(-c3ccccn3)cs2)cc1 | 25 µM
92 | COc1ccc(-c2cnc(NC(=O)c3ccc(F)cc3)n2C)cc1 | 3.2 µM
93 | COc1ccc(C(=O)Nc2cc(C(F)(F)F)ccc2N2CCOCC2)c(OC)c1 | 25 µM
94 | COc1ccc(S(=O)(=O)NCc2ccc(-c3ccc(CN(C)CCO)cc3)cc2)cc1 | 3.2 µM
95 | c1ccc2c(CCOc3nccnc3-c3ccncc3)c[nH]c2c1 | 40 µM
96 | Cc1nccn1C1CCCN(C(=O)c2cc3c(F)cccc3s2)C1 (centres undefined) | > 40 µM (inactive)
97 | O=C(Nc1ccc(Br)c(Cl)c1)Nc1ccc2c(c1)OCO2 | 13 µM
98 | CCN(CC)c1nc(N(C)C)nc2c1CN(Cc1ccccc1)CC2 | 20 µM
99 | CCC(c1ccc(F)cc1)n1cncc1-c1cnn(C)c1 (centres undefined) | > 40 µM (inactive)
100 | CC(C)CC(=O)NC(c1cccs1)c1ccc2cccnc2c1O (centres undefined) | 0.63 µM
101 | CC(C)(C)c1csc(NC(=O)c2ccc([N+](=O)[O-])s2)n1 | 1.6 µM
102 | O=C(N1CCc2ccccc2CC1)C1(C(=O)N2CCC(n3c(=O)[nH]c4ncccc43)CC2)CC1 | > 40 µM (inactive)
103 | Cc1ccc(NC(=O)c2ccc(Cl)c(NC(=O)c3ccc([N+](=O)[O-])cc3)c2)cc1 | 16 µM
104 | COc1cccc(CN(C)Cc2nc(N)c3c(C)c(C)sc3n2)c1 | 4 µM
105 | O=C(CCCNC(=O)c1ccc(Cl)cc1)Nc1nc(-c2ccccn2)cs1 | 13 µM
106 | CC(=O)Nc1ccc(-c2cnc(N)c(-c3nc4ccc(F)cc4[nH]3)c2)cc1 | 2 µM
107 | CCC(CC)C(=O)Nc1ccc(-c2nnc(-c3ccc(OC)cc3)o2)cc1 | 0.5 µM
108 | CNC(=O)Oc1ccc(C(=O)NCc2ccccc2)cc1OC(=O)NC | 0.4 µM
109 | NC(=O)c1ncc(N[C@@H]2CCCNC2)nc1Nc1cccc(Cl)c1 | 0.2 µM
